This passage reports IC50 results from patent US9546153B2, “Bicyclic heterocycle substituted pyridyl compounds useful as kinase modulators” (BRISTOL-MYERS SQUIBB COMPANY, priority 2012, dated 2017).

Molecules are shown by their SMILES. pIC50: −log10 of the molar value. Where two headings read alike, the source gives them in different places.

The target of one test is IRAK4 (Homo sapiens (Human), UniProt Q9NWZ3). Kind of test: IRAK4 Inhibition Assay. Format: biochemical. Conditions: ATP 500 μM; IRAK4 0.6 nM; 60 min at room temperature. The method, then:
The assays were performed in U-bottom 384-well plates. […] The reaction was initiated by the combination of IRAK4 with substrates and test compounds. The reaction was incubated at room temperature for 60 min. and terminated by adding 45 μL of 35 mM EDTA to each sample. The reaction mixture was analyzed on the Caliper LABCHIP® 3000 (Caliper, Hopkinton, Mass.) by electrophoretic separation of the fluorescent substrate and phosphorylated product.

Test [1] relates to TLR2 induced IL-6 in peripheral blood mononuclear cells (PBMCs). Kind of test: PBMC TLR2 Induced IL-6 Assay. The class given is cell-based, human. The note with it: human PBMCs, 10 μg/ml lipoteichoic acid for 5 hours, IL-6 by ELISA, value without asterisk, read-out: Cell IC50. A digest of the protocol: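 Human PBMCs (250000 cells/well) in RPMI with 10% heat-inactivated FCS pre-treated with compound for 30 min at 37° C, then stimulated 5 h with 10 μg/ml lipoteichoic acid. Supernatant IL-6 measured by ELISA and reported as IC50 or EC50.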
Background: ELISA stands for enzyme-linked immunosorbent assay.

Chain of IRAK4 (Q9NWZ3 whole entry, species assumed): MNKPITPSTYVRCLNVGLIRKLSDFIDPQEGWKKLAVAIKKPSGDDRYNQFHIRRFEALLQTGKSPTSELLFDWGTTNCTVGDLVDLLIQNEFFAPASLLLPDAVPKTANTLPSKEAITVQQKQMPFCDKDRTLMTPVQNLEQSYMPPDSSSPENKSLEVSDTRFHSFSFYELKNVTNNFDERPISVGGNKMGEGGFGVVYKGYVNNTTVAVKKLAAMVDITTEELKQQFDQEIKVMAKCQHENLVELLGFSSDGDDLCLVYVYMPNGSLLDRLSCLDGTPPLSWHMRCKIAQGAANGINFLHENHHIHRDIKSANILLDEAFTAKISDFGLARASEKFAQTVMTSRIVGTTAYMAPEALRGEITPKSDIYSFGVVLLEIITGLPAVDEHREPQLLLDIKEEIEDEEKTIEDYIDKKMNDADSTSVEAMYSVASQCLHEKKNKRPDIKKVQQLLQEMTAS

One may read the pIC50 as the IC50 on a negative log10 scale, so that one unit is a factor of ten. As for `CC(C)(O)[C@H](F)CNC(=O)c1cnc(Nc2ccn3nccc3c2)cc1NC1CCC(F)(F)C1` (some centres unmarked) [Example 299], the figures for the pIC50 (at IRAK4; in test [1]) were 8.77 and 6.38, respectively.
For `Cc1nn2ccc(Nc3cc(NCC(C)(C)F)c(C(=O)NC[C@@H](F)C(C)(C)O)cn3)cc2c1F` [Example 300], the pIC50 was 8.36 on IRAK4 and 6.53 in test [1] (Homo sapiens, PBMC, 5 h).
The corresponding values for `CC(C)(F)CNc1cc(Nc2ccn3ncc(F)c3c2)ncc1C(=O)NC[C@@H](F)C(C)(C)O` [Example 301] are 8.51 and 6.72.
As for `CCC(C)Nc1cc(Nc2ccn3nccc3c2)ncc1C(=O)NC[C@@H](F)C(C)(C)O` (some centres unmarked) [Example 302], the pIC50 is 8.25 at IRAK4 and 6.37 in test [1] (Homo sapiens, PBMC, 5 h).
The corresponding values for `CC(C)(O)[C@H](F)CNC(=O)c1cnc(Nc2ccc3ncsc3n2)cc1NC1CC1` [Example 308] are 9.30 and 6.84.
With `CC(C)Nc1cc(Nc2ccc3ncsc3n2)ncc1C(=O)NC[C@@H](F)C(C)(C)O` [Example 309], the pIC50 on IRAK4 is 8.72; in test [1] (Homo sapiens, PBMC, 5 h), 7.21.
The corresponding values for `CC(C)(O)[C@H](F)CNC(=O)c1cnc(Nc2ccc3ncsc3n2)cc1NCC(F)(F)F` [Example 310] are 8.72 and 6.76.
The corresponding values for `CCNc1cc(Nc2ccc3ncsc3n2)ncc1C(=O)NC[C@@H](F)C(C)(C)O` [Example 311] are 8.62 and 7.09.
For the compound `CC(C)(O)[C@H](F)CNC(=O)c1cnc(Nc2ccc3ncsc3n2)cc1NC1CCOCC1` [Example 312], the pIC50 is 9.00 at IRAK4 and 7.54 in test [1] (Homo sapiens, PBMC, 5 h).
The corresponding values for `CC(C)Nc1cc(Nc2ccc3ncsc3n2)ncc1C(=O)NCC(F)(F)C(C)(C)O` [Example 313] are 8.47 and 7.14.
The corresponding values for `CC(C)(F)CNc1cc(Nc2ccc3ncsc3n2)ncc1C(=O)NC[C@@H](F)C(C)(C)O` [Example 314] are 8.57 and 6.94.
The corresponding values for `CC(C)(O)[C@H](F)CNC(=O)c1cnc(Nc2cc3scnc3cn2)cc1NC1CC1` [Example 315] are 8.41 and 6.37.
With `CC(C)(F)CNc1cc(Nc2cc3scnc3cn2)ncc1C(=O)NC[C@@H](F)C(C)(C)O` [Example 316], the pIC50 on IRAK4 is 8.33; in test [1] (Homo sapiens, PBMC, 5 h) it was 6.37.
For the compound `CCC(O)(CC)[C@H](F)CNC(=O)c1cnc(Nc2ccc3ncsc3c2)cc1NCC(C)(C)F` [Example 317], the pIC50 is 8.77 on IRAK4 and 6.43 in test [1] (Homo sapiens, PBMC, 5 h).
In the case of `CC(C)Nc1cc(Nc2ccn3nccc3n2)ncc1C(=O)NC12CCC(N)(CC1)CC2` [Example 318, N-(4-aminobicyclo[2.2.2]octan-1-yl)-4-(isopropylamino)-6-(pyrazolo[1,5-a]pyrimidin-5-ylamino)nicotinamide], the pIC50 on IRAK4 is 8.16; in test [1] (Homo sapiens, PBMC, 5 h), 6.56.
The corresponding values for `CNC(=O)c1ccc(Nc2cc(Nc3ccc4ncsc4c3)ncc2C(=O)NC[C@@H](F)C(C)(C)O)cc1` [Example 319, (R)-6-(benzo[d]thiazol-6-ylamino)-N-(2-fluoro-3-hydroxy-3-methylbutyl)-4-(4-(methylcarbamoyl)phenylamino)nicotinamide] are 8.52 and 6.50.
The corresponding values for `CC(C)(O)[C@H](F)CNC(=O)c1cnc(Nc2ccc3ncsc3c2)cc1Nc1ccc(C(N)=O)cc1` [Example 320] are 8.62 and 6.57.
The corresponding values for `CC(C)(O)[C@H](F)CNC(=O)c1cnc(Nc2ccc3ncsc3c2)cc1Nc1ccc(C(=O)NC2CC2)cc1` [Example 321] are 8.19 and 5.94.
Consider `CCNC(=O)c1ccc(Nc2cc(Nc3ccc4ncsc4c3)ncc2C(=O)NC[C@@H](F)C(C)(C)O)cc1` [Example 322], for which the pIC50 was 8.07 at IRAK4 and 6.31 in test [1] (Homo sapiens, PBMC, 5 h).
The corresponding values for `CC(C)(O)[C@H](F)CNC(=O)c1cnc(Nc2ccc3ncsc3c2)cc1Nc1ccc(C(=O)NCC(F)(F)F)cc1` [Example 324] are 7.97 and 6.72.
The corresponding values for `CC(C)(O)[C@H](F)CNC(=O)c1cnc(Nc2ccc3ncsc3c2)cc1Nc1ccc(C(=O)NCCO)cc1` [Example 325] are 8.31 and 6.07.
In the case of `CCCNC(=O)c1ccc(Nc2cc(Nc3ccc4ncsc4c3)ncc2C(=O)NC[C@@H](F)C(C)(C)O)cc1` [Example 326], the pIC50 is 7.89 on IRAK4 and 6.36 in test [1] (Homo sapiens, PBMC, 5 h).
On to `CC(C)(O)[C@H](F)CNC(=O)c1cnc(Nc2ccc3ncsc3c2)cc1N[C@H]1CCCC(O)C1` (stereo partly drawn) [Example 327, 6-(benzo[d]thiazol-6-ylamino)-N—((R)-2-fluoro-3-hydroxy-3-methylbutyl)-4-(3-hydroxycyclohexylamino)nicotinamide], for which the pIC50 at IRAK4 was 8.01; in test [1], 6.00.
With `CC(C)(O)[C@H](F)CNC(=O)c1cnc(Nc2ccc3ncsc3c2)cc1N[C@H]1CCCC(O)C1` (some centres unmarked) [Example 328], the pIC50 was 8.32 at IRAK4 and 6.31 in test [1].
As to `CC(C)(O)C(F)CNC(=O)c1cnc(Nc2ccc3ncsc3c2)cc1N[C@H]1CCCC(F)C1` (some centres unmarked) [Example 329, 6-(benzo[d]thiazol-6-ylamino)-N-(2-fluoro-3-hydroxy-3-methylbutyl)-4-(3-fluorocyclohexylamino)nicotinamide], the pIC50 on IRAK4 is 8.49; in test [1] (Homo sapiens, PBMC, 5 h), 6.95.
The corresponding values for `CC(C)(O)[C@H](F)CNC(=O)c1cnc(Nc2ccc3ncncc3c2)cc1N[C@@H]1CCC[C@H]1O` [Example 330] are 8.66 and 7.12.
Regarding `CC(C)C(O)[C@H](F)CNC(=O)c1cnc(Nc2ccc3ncsc3c2)cc1N[C@@H]1CCC[C@H]1O` (some centres unmarked) [Example 331], the figures for the pIC50 (at IRAK4; in test [1]) were 8.62 and 6.79, respectively.
In the case of `CC(C)C(O)[C@H](F)CNC(=O)c1cnc(Nc2ccc3ncsc3c2)cc1N[C@@H]1CCC[C@H]1O` (some centres unmarked) [Example 332], the pIC50 was 8.51 at IRAK4 and 6.10 in test [1].
`CC(O)([C@H](F)CNC(=O)c1cnc(Nc2ccc3ncsc3c2)cc1N[C@@H]1CCC[C@H]1O)C(F)(F)F` (some centres unmarked) [Example 333]: the pIC50 at IRAK4 is 8.39; in test [1], 6.82.
The corresponding values for `CC(O)([C@H](F)CNC(=O)c1cnc(Nc2ccc3ncsc3c2)cc1N[C@@H]1CCC[C@H]1O)C(F)(F)F` (some centres unmarked) [Example 334] are 8.35 and 6.49.
`O=C(NC[C@@H](F)CO)c1cnc(Nc2ccc3ncsc3c2)cc1NC1CCCC1O` (some centres unmarked) [Example 337]: the pIC50 was 8.24 at IRAK4 and 6.10 in test [1] (Homo sapiens, PBMC, 5 h).
The corresponding values for `CC(C)(O)[C@H](F)CNC(=O)c1cnc(Nc2ccc3nccnc3c2)cc1NC1CCCC1O` (some centres unmarked) [Example 338] are 7.77 and 6.31.
`CC(C)(O)[C@H](F)CNC(=O)c1cnc(Nc2ccc3ncsc3c2)cc1N[C@@H]1CCCC1F` (some centres unmarked) [Example 343]: the pIC50 at IRAK4 is 8.52; in test [1], 6.94.
The corresponding values for `CC(C)(O)[C@H](F)CNC(=O)c1cnc(Nc2ccc3ncsc3c2)cc1N[C@@H]1CCCC1F` (some centres unmarked) [Example 344] are 8.74 and 7.42.
As for `Cc1nc2cc(F)c(Nc3cc(NC4CCCC4F)c(C(=O)NC[C@@H](F)C(C)(C)O)cn3)cc2s1` (some centres unmarked) [Example 347], the pIC50 is 8.49 on IRAK4 and 6.49 in test [1] (Homo sapiens, PBMC, 5 h).
In the case of `CC(C)(O)[C@H](F)CNC(=O)c1cnc(Nc2ccc3nccnc3c2)cc1NC1CCCC1F` (some centres unmarked) [Example 348], the pIC50 is 8.17 at IRAK4 and 6.25 in test [1] (Homo sapiens, PBMC, 5 h).
On to `Cc1nc2ccc(Nc3cc(NC4CCCC4F)c(C(=O)NC[C@@H](F)C(C)(C)O)cn3)cc2s1` (some centres unmarked) [Example 349], for which the pIC50 on IRAK4 is 8.07; in test [1], 6.32.
With `Cc1nc2ccc(Nc3cc(NC4CCCC4F)c(C(=O)NC[C@@H](F)C(C)(C)O)cn3)cc2s1` (some centres unmarked) [Example 350], the figures for the pIC50 (on IRAK4; in test [1]) were 8.57 and 6.83, respectively.
For `CC(C)(O)[C@H](F)CNC(=O)c1cnc(Nc2ccc3ncccc3c2)cc1NC1CCCC1F` (some centres unmarked) [Example 351], the pIC50 is 8.23 at IRAK4 and 6.64 in test [1] (Homo sapiens, PBMC, 5 h).
Consider `O=C(NC1CCC(O)CC1)c1cnc(Nc2ccc3ncsc3c2)cc1NC1CCCC1F` (centres unmarked) [Example 352], for which the pIC50 on IRAK4 was 8.42; in test [1], 6.61.
Turning to `O=C(NC1CCC(O)CC1)c1cnc(Nc2ccc3ncsc3c2)cc1NC1CCCC1F` (centres unmarked) [Example 353], the pIC50 is 8.54 on IRAK4 and 6.95 in test [1].
With `CC(C)(O)[C@H](F)CNC(=O)c1cnc(Nc2ccc3ncoc3c2)cc1N[C@@H]1CCCC1F` (some centres unmarked) [Example 354], the pIC50 on IRAK4 is 8.36; in test [1] (Homo sapiens, PBMC, 5 h), 6.40.
Regarding `CC(C)(O)[C@H](F)CNC(=O)c1cnc(Nc2ccc3ncoc3c2)cc1N[C@@H]1CCCC1F` (some centres unmarked) [Example 355], the pIC50 at IRAK4 is 8.66; in test [1], 6.63.
`CC(C)(O)[C@H](F)CNC(=O)c1cnc(Nc2ccc3nonc3c2)cc1N[C@@H]1CCCC1F` (some centres unmarked) [Example 356]: the pIC50 at IRAK4 was 8.52; in test [1] (Homo sapiens, PBMC, 5 h), 6.55.
As for `CC(C)(O)[C@H](F)CNC(=O)c1cnc(Nc2ccc3nonc3c2)cc1N[C@@H]1CCCC1F` (some centres unmarked) [Example 357], the pIC50 on IRAK4 is 8.14; in test [1] it was 6.40.
In the case of `CC(C)(O)[C@H](F)CNC(=O)c1cnc(Nc2ccc3ncsc3c2)cc1NC1CCCC1(F)F` (some centres unmarked) [Example 358], the pIC50 on IRAK4 was 8.62; in test [1] (Homo sapiens, PBMC, 5 h), 7.32.
